Reference: ChEMBL document CHEMBL1121443, “Role of iodine in thyroid hormones: molecular conformation of a halogen-free hormone analogue” (1980)

How the values were obtained:
[1] = In vivo percentage antigoiter activity of compound was determined; format: functional, Rattus norvegicus; set-up: concentration or dose not given beside the values
Rattus norvegicus = organism: Rattus norvegicus; experiment: In vitro binding affinity of compound to the rat Hepatic nuclear protein receptors was determined
[2] = In vitro percentage thymocyte activity of compound was determined in rat; format: functional; set-up: concentration or dose not given beside the values
[3] = biological target: T1, Thyroxine-binding globulin (Homo sapiens) (UniProt P05543); experiment: Percentage thyroxine-binding globulin (TBG) binding activity of compound was determined in human serum; format: cell-free
T1 sequence (whole entry): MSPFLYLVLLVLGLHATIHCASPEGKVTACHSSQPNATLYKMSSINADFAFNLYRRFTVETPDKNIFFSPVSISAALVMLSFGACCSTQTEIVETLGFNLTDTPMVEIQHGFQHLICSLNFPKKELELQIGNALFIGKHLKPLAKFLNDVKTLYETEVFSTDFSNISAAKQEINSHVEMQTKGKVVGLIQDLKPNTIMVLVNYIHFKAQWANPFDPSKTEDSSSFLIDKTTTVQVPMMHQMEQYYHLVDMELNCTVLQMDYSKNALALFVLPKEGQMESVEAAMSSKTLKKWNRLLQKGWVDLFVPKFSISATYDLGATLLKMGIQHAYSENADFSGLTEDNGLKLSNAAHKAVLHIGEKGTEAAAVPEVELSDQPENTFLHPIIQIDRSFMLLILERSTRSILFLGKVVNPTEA

[4] = biological target: T1, Thyroxine-binding globulin (Homo sapiens); experiment: Percentage thyroxine-binding globulin binding activity of compound was determined in human serum; format: cell-free

Row | Activity (Rattus norvegicus) | Activity [3] | Activity [4] | Structure (SMILES) | Activity [1] | Activity [2]
1 | 0.7% | 0.05% | – | Cc1cc(CC(N)C(=O)O)cc(C)c1Oc1ccc(O)c(C(C)C)c1 (centres undefined) | 3.6% | 48%
2 | 0.1% | 0% | – | Cc1cc(Oc2c(C)cc(CC(N)C(=O)O)cc2C)cc(C)c1O (centres undefined) | 0.54% | 23%
3 | – | 9% | – | N[C@@H](Cc1cc(I)c(Oc2ccc(O)c(I)c2)c(I)c1)C(=O)O [LIOTHYRONINE] | 100% | 100%
4 | 0.1% | 0% | – | Cc1cc(Oc2c(C)cc(CC(N)C(=O)O)cc2C)ccc1O (centres undefined) | 0.36% | 23%
5 | 12.5% | – | 100% | N[C@@H](Cc1cc(I)c(Oc2cc(I)c(O)c(I)c2)c(I)c1)C(=O)O [LEVOTHYROXINE] | 18% | 30%
